Laboratory results reported in patent US11517019B2, “Microbicidal system” (priority 2020, dated 2022).
Entries after “also recorded” stand apart in the source; their conditions may differ. Like-named read-outs stand apart in the source and are kept apart here.

How the values were obtained:
Lp1 = format: cell-based, Legionella pneumophila; conditions: ~9×10^6 CFU/mL
[1] = system: gram-positive and gram-negative bacteria; conditions: cited from earlier work
[2] = ambient temperature; third-party reports; cited from earlier work
[3] = Dissolution of CX powder in 140° F. municipal water
[4] = 50 mg CX powder in 1 liter 140° F. (60° C.) municipal water

[H]/N=C(\N/C(=N/[H])NCCCCCCNC(=N)NC(=N)Nc1ccc(Cl)cc1)Nc1ccc(Cl)cc1 [CX, N,N″″1,6-Hexanediylbis[N-(4-chlorophenyl) (imidodicarbonimidic diamide)]]
cell count reduction (Lp1; 4.5 g solid CX in 800 mL, first 30 seconds): ~0.3 log | cell count reduction (Lp1; 12 g solid CX in 800 mL, 2-minute reaction period): ~4.8 log | time of uptake into bacterial cells ([1]; aqueously dissolved form): ≤ 20 s | persistence of activity ([1]; bound to proteins on skin, mucosa, mouth tissue and teeth): ≥ 48 h | time to kill virtually all gram-positive and gram-negative bacteria ([1]; in vitro): ≤ 30 s | solubility in water [2]: ca. 80 mg/100 mL | saturation level of CX approached [3, 4]: ~1 mg/L | time to approach saturation level [3, 4]: ≤ 10 s | portion of the powder dissolved ([3]; 50 mg in 1 liter 140° F. water, up to 20 minutes of exposure): under 2 weight percent | chloroaniline (CA) isomers detectable in the water ([3]; CX in 140° F. water): no isomer of CA was detectable; also recorded: No chloroani line impurities were detectable
